Data: patent US20110008466A1, “METHODS AND COMPOSITIONS FOR ALTERING CELL FUNCTION” (ALLTECH, INC., priority 2006, published 2011)

Tests used:
Type in all cases: in vivo, mice
[1] = tested on: Gadd45b; experiment: Gene expression, liver tissue; details: vs Se-deficient, minus = down
Text: (§1) Animal Care. Male C57BL/6J mice were housed singly and started on the experimental diets described below immediately after weaning (21 days of age). The mice were maintained in the Shared Aging Rodent Facility at the William S. Middleton Memorial Veterans Administration Medical Center (Madison, Wis.). Temperature and humidity were maintained at constant levels. Room light was controlled to provide 12-hr cycles of light and dark.
(§2) Experimental diets were created by Harlan Teklad (Madison, Wis.). Selenium content of the diets was determined by Covance Inc. (Madison, Wis.). Five (5) animals were included in each of the following treatment groups: a diet deficient in selenium (SD); a diet supplemented with selenomethionine (SM, obtained from Sigma, St. Louis, Mo.) such that the final selenium content of the diet was one (1) part per million; a diet supplemented with sodium selenite (SS, Sigma) such that the final concentration of selenium in this diet was one (1) part per million; or a diet supplemented with the yeast selenium SEL-PLEX (SP, Alltech, Lexington, Ky.), such that the final concentration of selenium in this diet was one (1) part per million. SEL-PLEX. Mice were provided with water and their respective diet ad libitum for 100 days. […]
(§3) • 1. […] Additionally, a “signal intensity score” was calculated for each probe set as the sum of the signal intensities for all chips (N=20). • 2. […]

[2] = tested on: Gadd45b; experiment: Microarray gene expression, mouse cerebral cortex; details: cortex tissue, vs Se-deficient, minus = down
Text: as §1
(§4) Experimental diets were created by Harlan Teklad (Madison, Wis.). Selenium content of the diets was determined by Covance Inc. (Madison, Wis.). Five (5) animals were included in each of the following treatment groups: a diet deficient in selenium (SD); a diet supplemented with selenomethionine (SM, obtained from Sigma, St. Louis, Mo.) such that the final selenium content of the diet was one (1) part per million; a diet supplemented with sodium selenite (SS, Sigma) such that the final concentration of selenium in this diet was one (1) part per million; or a diet supplemented with the yeast selenium SEL-PLEX (SP, Alltech, Lexington, Ky.), such that the final concentration of selenium in this diet was one (1) part per million. SEL-PLEX. Mice were provided with water and their respective diet ad libitum for 100 days. Diets were stored at the dark at 4° C. and fresh diet was added to feeder twice weekly.
(§5) Tissue sample preparation and microarray analysis. Mice were killed at 100 days of age by cervical dislocation. For intestinal expression studies, the intestine was flushed twice with saline solution and small intestine was measured and divided in three equal segments. A 3-cm region of the middle segment of the small intestine corresponding to the jejunum (˜300 mg of tissue) was cut and rinsed again with physiological saline to completely remove contents, flash frozen in liquid nitrogen and stored at −80° C. For brain (e.g., cerebral cortex) studies, the cerebral cortex was separated from the surrounding brain tissue and was flash frozen in liquid nitrogen and stored at −80° C.
(§6) Total RNA was isolated from using the guanidinium isothiocyanate method of TRIZOL (Life Technologies, Grand Island, N.Y.) and individual samples were used for gene expression profiles. Total RNA was cleaned up by RNeasy Mini kit (Qiagen, Valencia, Calif.). Target RNA was prepared by converting […] total RNA into double-strand cDNA using GeneChip Expression 3′-Amplification Reagents One-Cycle cDNA Synthesis Kit (Affymetrix, Santa Clara, Calif.) with a T7-(dT)24 primer incorporating a T7 RNA polymerase promoter. After cleaning up double-strand cDNA using Genechip Sample Cleanup Module (Affymetrix, Santa Clara, Calif.), biotin-labeled cRNA was synthesized from double-strand cDNA using GeneChip Expression 3′-Amplification Reagents for IVT Labeling (Affymetrix, Santa Clara, Calif.). The biotin-labeled cRNA was cleaned up using Genechip Sample Cleanup Module and was fragmented by heating (35 min at 94° C.).
(§7) Fifteen (15) μg of cRNA fragments were hybridized (16 h at 45° C.) to Mouse Genome 430 2.0 Array (Affymetrix, Santa Clara, Calif.) using GeneChip Hybridization Oven 640. After hybridization, the gene chips were automatically washed and stained with streptavidin-phycoerythrin biotinylated anti-streptavidin using Affymetrix GeneChip Fluidics Station 450. The DNA chips were scanned with Affymetrix GeneChip Scanner 3000 (Affymetrix, Santa Clara, Calif.) to detect the cell signal intensities by laser. All calculations were performed with Affymetrix GeneChip Operating Software (GCOS) version 1.3 after scanning
(§8) • 1. The spreadsheet containing probe set identifiers and signal intensity values was opened in Microsoft Excel (version 11.1.1 for the Macintosh OS-X operating system) and summary statistics were generated (mean signal intensity for each treatment group, standard error of the mean). Two-tailed t-tests (equal variance) were performed for the following treatment groups: SM vs. SD, SS vs. SD, and SP vs. SD. […]

[3] = tested on: CORS-26; experiment: Microarray gene expression, mouse cerebral cortex; details: Example 10 (brain); vs Se-deficient diet
Text: as §1, §4, §5, §6, §7, §8

[4] = tested on: GST genes; experiment: Microarray gene expression, mouse intestine (summary of Table 3); details: vs Se-deficient diet
Text: as §1
as §2, with “SEL-PLEX.” for “SEL-PLEX. Mice were provided with water and their respective diet ad libitum for 100 days.”
(§9) Tissue sample preparation and microarray analysis. […] For intestinal expression studies, the intestine was flushed twice with saline solution and small intestine was measured and divided in three equal segments. […]

[5] = tested on: complement component genes; experiment: Microarray gene expression, mouse cerebral cortex (summary of Table 6); details: p<0.01
Text: as §1
as §2, with “SEL-PLEX.” for “SEL-PLEX. Mice were provided with water and their respective diet ad libitum for 100 days.”
as §9

[6] = tested on: type II iodothyronine deiodinase (Dio2); experiment: Microarray gene expression, mouse intestine; details: 1 ppm Se diet 100 days vs Se-deficient diet
Text: as §1, §4, §5, §6, §7, §8

[7] = tested on: Neurogenin 3 (Neurog3); experiment: Microarray gene expression, mouse intestine; details: vs Se-deficient diet
Text: as §1, §4, §5, §6, §7, §8

[8] = tested on: Growth arrest and DNA-damage-inducible 45 gamma (Gadd45g); experiment: Microarray gene expression, mouse intestine; details: vs Se-deficient diet, minus = down
Text: as §1, §4, §5, §6, §7, §8

[9] = tested on: transforming growth factor beta 2 (TGF-β2); experiment: Microarray gene expression, mouse intestine; details: vs controls
Text: as §1, §4, §5, §6, §7, §8

[10] = tested on: Growth arrest and DNA-damage-inducible 45 beta (Gadd45b); experiment: Microarray gene expression, mouse intestine; details: intestinal tissue; vs Se-deficient; minus = down
Text: as §1, §4, §5, §6, §7, §8

[11] = tested on: Prohibitin (Phb); experiment: Microarray gene expression, mouse intestine; details: vs Se-deficient diet, p<0.05
Text: as §1, §4, §5, §6, §7, §8

[12] = tested on: sprouty homolog 2 gene (Spry2); experiment: Microarray gene expression, mouse intestine; details: relative to Se-deficient controls
Text: as §1, §4, §5, §6, §7, §8

[13] = tested on: Selenoprotein W (SelW); experiment: Microarray gene expression, mouse intestine; details: 1 ppm Se diet 100 days vs Se-deficient diet
Text: as §1, §4, §5, §6, §7, §8

[14] = tested on: Type 1 iodothyronine deiodinase; experiment: Microarray gene expression, mouse intestine; details: 1 ppm Se diet 100 days vs Se-deficient diet
Text: as §1, §4, §5, §6, §7, §8

[15] = tested on: SelR (Selenoprotein X1); experiment: Microarray gene expression, mouse intestine; details: 1 ppm Se diet 100 days vs Se-deficient diet
Text: as §1, §4, §5, §6, §7, §8

[16] = tested on: Gadd45g1p; experiment: Microarray gene expression, mouse intestine; details: p<0.05
Text: as §1, §4, §5, §6, §7, §8

[17] = tested on: Glyoxalase 1 (Glo1); experiment: Microarray gene expression, mouse intestine; details: 1 ppm Se diet 100 days vs Se-deficient diet, p<0.01
Text: as §1, §4, §5, §6, §7, §8

[18] = tested on: selenoprotein N1 (Sepn1); experiment: Microarray gene expression, mouse intestine; details: 1 ppm Se diet 100 days vs Se-deficient diet, p<0.02
Text: as §1, §4, §5, §6, §7, §8

[19] = tested on: LIM homeobox protein 8 gene (Lhx8); experiment: Microarray gene expression, mouse intestine; details: vs Se-deficient subjects, p<0.01
Text: as §1, §4, §5, §6, §7, §8

[20] = tested on: Gadd45b; experiment: Gene expression, skeletal muscle tissue; details: vs Se-deficient, minus = down
Text: as §1, §2, §3

[21] = tested on: glycogen synthase kinase-3-beta (GSK-3β); experiment: Microarray gene expression, tau kinases, brain; details: vs non-selenium supplemented diet; minus = down; * significant; listed as SM
Text: as §1, §4, §5
(§10) Total RNA was isolated from using the guanidinium isothiocyanate method of TRIZOL (Life Technologies, Grand Island, N.Y.) and individual samples were used for gene expression profiles. Total RNA was cleaned up by RNeasy Mini kit (Qiagen, Valencia, Calif.). Target RNA was prepared by converting […] total RNA into double-strand cDNA using GeneChip Expression 3′-Amplification Reagents One-Cycle cDNA Synthesis Kit (Affymetrix, Santa Clara, Calif.) with a T7-(dT)24 primer incorporating a T7 RNA polymerase promoter. […]

[22] = tested on: cyclin-dependent kinase 5 (Cdk-5); experiment: Microarray gene expression, tau kinases, brain; details: vs non-selenium supplemented diet; minus = down; * significant; listed as SM
Text: as §1, §4, §5, §10

`C[Se]CC[C@H](N)C(=O)O` [SeM, selenomethionine] was tested, and the “Fold change Gadd45b gene expression, liv (Table 14)” value [1] was 1.24 fold, the “Fold change Gadd45b gene expression, ctx (Table 14)” value ([2]; listed as Selenomethionine) was −1.26 fold and the “Fold change Gadd45b gene expression, ctx (Table 14)” value ([2]; listed as selenomethionine) was “significant reduction”. For the same compound, the “fold reduction in expression of CORS-26” value [3] was “no alteration”, the “alteration of expression pattern of GST genes (summary in words)” value [4] was “no alteration” and the “down-regulation of complement component genes (summary in words)” value [5] was “did not provide a statistically significant alteration”. For the same compound, the “fold down-regulation of Dio2 expression” value [6] was “no ability to alter”, the “fold upregulation of Neurog3 expression” value [7] was “no significant alteration” and the “FC Gadd45g expression (Table 2)” value [8] was −1.5 (p < 0.05) fold. For the same compound, the “fold upregulation of TGF-β2 expression” value [9] was “not altered”, the “Fold change Gadd45b gene expression, int (Table 14)” value [10] was −1.07 fold and the “fold upregulation of Prohibitin (Phb) expression” value [11] was 1.6 fold. The “fold reduction in Spry2 gene expression” value [12] was “no alteration”, the “fold upregulation of Selenoprotein W (SelW) expression” value [13] was “not significantly altered” and the “fold increase in expression of Type 1 iodothyronine deiodinase” value [14] was 2.0 fold. For the same compound, the “fold upregulation of SelR gene” value [15] was “not significantly affected”, the “expression of Gadd45g1p in intestinal tissue” value [16] was “decreased expression” and the “fold reduction of Glo1 expression” value [17] was “not significantly affected”. The “fold increase of selenoprotein N1 (Sepn1) gene expression” value [18] was “not significantly affected”, the “fold upregulation of Lhx8 expression” value [19] was “not significantly different” and the “Fold change Gadd45b gene expression, skm (Table 14)” value [20] was 1.02 fold. For the same compound, the “FC GsKβ3 (GSK-3β) gene expression” value [21] was −1.10 fold and the “FC CdK5 gene expression” value [22] was −1.00 fold.
